Here are results for five compounds from patent US20250283058A1, “USE OF p55-GAMMA GENE AND/OR p55-GAMMA PROTEIN AS TARGET IN MAINTAINING CARDIAC IRON HOMEOSTASIS AND TREATING RELATED DISEASE” (BEIJING FRIENDSHIP HOSPITAL, CAPITAL MEDICAL UNIVERSITY, priority 2024, published 2025).

Where a SMILES comes first, the peptide text is derived from it. The star is where a group is joined. Cbz = O=C(OCc1ccccc1)*

The subject of one test is Tfr1 and IRP2. Briefly: Western blot of Tfr1 and IRP2 after perhexiline treatment of cardiomyocytes. Format: cell-based. Particulars: 24 h treatment. The method, then: (§1) In view of the importance of p55γ in combating ferroptosis, it is particularly important to find potential activators of p55γ for the treatment of I/R injury. Therefore, potential activators of p55γ were predicted using existing small molecule drug libraries. Subsequently, molecular docking analysis was conducted based on the crystal structure of p55γ. […] To determine the potential role of perhexiline in cardiomyocyte ferroptosis, experiments were first done in cardiomyocytes. […] The effect of perhexiline was further tested in the context of H/R injury model.
A general note: Immunoblotting shows a protein as a band on a membrane.

The test system of another test is cardiomyocytes (NRVMs). Briefly: H/R injury model in cardiomyocytes with perhexiline. Format: cell-based. The method, then: as §1
Test [1] deals with I/R injury-induced cardiac ferroptosis. The test is described as follows: I/R injury model in mice pretreated with perhexiline (TTC staining, MDA). Format: in vivo. Particulars: intraperitoneal injection 24 h and 2 h before I/R. The method, then: p55γ knockout (p55γ^−/−) mice were established according to routine methods in the art. Male wild-type (WT) C57 mice and p55γ^−/− mice aged 8 to 12 weeks were selected to set up a sham operation control group and experimental groups, respectively, and the mice were intraperitoneally injected with perhexiline 24 h and 2 h before constructing the I/R injury model. TTC staining and MDA detection were conducted according to conventional methods in the art.

Test [2] has the same test system. Briefly: I/R injury model in mice with ferroptosis inhibitors (TTC staining, serum LDH, MDA). The class given is in vivo. Particulars: for cardiac MDA content / serum LDH concentration: mice after I/R injury; for cardiac MDA content: compared with WT mice; for serum LDH concentration / I/R-induced myocardial infarct size: effect comparable to p55γ^h-TG mice; for I/R-induced myocardial infarct size: mice, TTC staining. The method, then: p55γ transgenic (p55γ^h-TG) mice were established according to routine methods in the art. Male wild-type (WT) C57 mice and p55γ^h-TG mice aged 8 to 12 weeks were selected to set up a sham operation control group and experimental groups, respectively, to construct I/R injury models. TTC staining, MDA detection, and oxidized lipid detection were conducted according to conventional methods in the art. To determine whether p55γ protein could inhibit I/R injury-induced cardiac ferroptosis, the experiments were carried out with the following groups: mice treated with saline, mice treated with Ferrostatin-1 (Fer-1) and Dexrazoxane (DXZ), and p55γ^h-TG mice. The cardiac infarction area of mice was detected by conventional TTC staining and the serum LDH concentration was assayed by LDH release kits. […] In addition, lipid peroxidation in the hearts of mice in each group was detected by intracellular MDA content assay. […] Given that the peroxidation of polyunsaturated fatty acids (PUFAs) is an important step in ferroptosis, and in order to further clarify the role of p55γ gene in ferroptosis, oxidized lipid substances in the hearts of mice from the […] group and WT-I/R group were measured using liquid chromatography-tandem mass spectrometry (LC-MS/MS).

In a further test the test system is p55γ gene. Briefly: p55γ gene mRNA and protein levels in cardiomyocytes treated with ferroptosis inducers (qPCR, Western blot). Particulars: NRVMs treated with ferroptosis inducer vs vehicle group. Format: cell-based. How it is done: The cultured cardiomyocytes were divided into: an erastin group and a vehicle group, where the NRVMs were treated with erastin in the erastin group, while the cardiomyocytes in the vehicle group were not treated in any way. The mRNA and protein levels of p55γ gene in the two groups of cardiomyocytes were detected by conventional quantitative polymerase chain reaction (qPCR) and Western blot methods.
The mRNA and protein levels of p55γ gene in the two groups of cardiomyocytes were detected by conventional qPCR and Western blot methods.
On the technique in general: Quantitative PCR measures a nucleic acid by following its amplification.

Another test has as its system IRP2. Briefly: IRP2 mRNA and protein levels in cardiomyocytes (qPCR, Western blot). The class given is cell-based. Particulars: Ad-p55γ-infected cardiomyocytes treated with MG132. The method, then:
To elucidate whether the p55γ gene could regulate the mRNA stability of Tfr1through the IRPs-IRE system, the expression of IRP2 in NRVMs was evaluated. Ad-p55γ was used to infect cardiomyocytes, and qPCR and Western blot were conducted to detect Ad-p55γ-infected cardiomyocytes for 48 h.
Ad-p55γ-infected cardiomyocytes were treated with MG132. […] In order to further study whether p55γ could promote the ubiquitination and degradation of IRP2, the target gene sequences of p55γ, IRP2, and UB were found in NCBI. A pcDNA3.1(+) vector was used, sequence analysis software was used to find the restriction endonuclease cleavage sites present in the target gene sequences, and plasmids for p55γ, IRP2, and […] were constructed. The plasmids were separately transfected into HEK293T cells, which were collected 24 h later and IRP2 ubiquitination was detected. Western blot was conducted to detect the ubiquitination level of IRP2.

Setting [3] is: cardiomyocytes, H/R injury model.
The mark [4] stands for this setting: with overexpression of IRP2 (IRP2 adenovirus).

Regarding `C1CCC(C(CC2CCCCN2)C2CCCCC2)CC1` (stereo not shown) [perhexiline], in the test on Tfr1 and IRP2, the “protein level of IRP2” value is reported as “significantly down-regulated” and the “protein level of Tfr1” value is recorded as “significantly down-regulated”. For the same compound, in the test with cardiomyocytes (NRVMs) (setting [3]), the “decrease in cell activity induced by H/R injury” value was “significantly blocked” and the “increase in ptgs2 mRNA levels induced by H/R injury” value is on record as “significantly blocked”. Moreover, in the test on cardiomyocytes (NRVMs) (setting [4]), the “inhibitory effect on H/R induced decrease in cell activity” value was “could block the inhibitory effect” and the “inhibitory effect on H/R induced increase in ptgs2 mRNA levels” value was “could block the inhibitory effect”. Also, in test [1] (WT mice), the “level of MDA in the heart” value is reported as “reduce”. Also, the myocardial infarct size entry in test [1] (WT mice, TTC staining) is “significantly reduce”. Also, in test [1] (p55γ^−/− mice), the “cardioprotective effect (level of MDA in the heart)” value is reported as “abolished” and the “cardioprotective effect (myocardial infarct size)” value is given as “abolished”.

With `CCOC(=O)c1ccc(NC2CCCCC2)c(N)c1` [Fer-1, Ferrostatin-1], in test [2], the “cardiac MDA content” value is “significantly reduced”, the “serum LDH concentration” value is on record as “reduced” and the “I/R-induced myocardial infarct size” value is recorded as “reduced”.

Consider `C[C@@H](CN1CC(=O)NC(=O)C1)N1CC(=O)NC(=O)C1` [DXZ, Dexrazoxane], for which, in test [2], the “cardiac MDA content” value is “significantly reduced”, the “serum LDH concentration” value is recorded as “reduced” and the “I/R-induced myocardial infarct size” value is recorded as “reduced”.

`COC(=O)c1ccc([C@@H]2c3[nH]c4ccccc4c3C[C@@H](C(=O)OC)N2C(=O)CCl)cc1` [RSL3]: the “protein level of p55γ gene” value in the test on p55γ gene (Western blot) is listed as “down-regulated”. Further, the “mRNA level of p55γ gene” value with p55γ gene (qPCR) is “down-regulated”.

In the case of `CC(C)C[C@@H](C=O)NC(=O)[C@H](CC(C)C)NC(=O)[C@H](CC(C)C)NC(=O)OCc1ccccc1` [MG132] (Cbz-Leu-Leu-Leu-aldehyde), in the test with IRP2, the “p55γ-mediated decrease in IRP2 protein” value is listed as “effectively eliminated”.
